Key:
Format in all cases: cell-based
[1] = system: Candida albicans (ATCC 10231); assay: MIC and MBC determination (broth dilution)
Protocol: (§1) The determination of the MIC and MBC of 9-decenoic acid conformed to the procedure printed in the Federal Register, June 1994 and the present NCCLS M11-A4 protocol. Challenge organisms were prepared as follows. The MIC and MBC of 9-decenoic acid and the methyl ester of 9-decenoic acid were determined for the following challenge organisms: Staphylococcus aureus (ATCC 6538), Pseudomonas aeruginosa (ATCC 15442), Staphylococcus epidermidis (ATCC 12228), Klebsiella pneumoniae (ATCC 4352), Escherichia coli 0157:H7 (ATCC 43895) and Candida albicans (ATCC 10231). Stock cultures of each organism were transferred onto suitable culture media, Mueller-Hinton Agar (MHA) plates, and incubated for 24 hours (+2 hours) at 37° C. (+2° C.). On the day of the test, the top of at least three to five well-isolated colonies were transferred via wire loop to a tube containing 4 to 5 ml of Trypticase Soy Broth (TSB). The TSB culture was incubated for 2 to 6 hours and turbidity was adjusted with sterile saline to achieve the turbidity of a McFarland 0.5 Standard.
(§2) The concentrated 9-decenoic acid (97%) was diluted in Mueller-Hinton Broth (MHB) to yield a 25,000 ppm stock solution of the 9-decenoic acid. For each organism, 12 dilutions of the 9-decenoic acid in MHB were prepared ranging from 0.25% to 0.00049%. The test solution of the methyl ester of 9-decenoic acid was formulated in the same manner.
(§3) A 2-ml aliquot of appropriately diluted 9-decenoic acid solution or methyl ester of 9-decenoic acid was placed in each tube. Each tube was inoculated with 0.05 ml of a 1:10 dilution of one challenge organism. Tubes were incubated at 37° C. (±2° C.) for 20-24 hours and observed for microbial growth visually and by spectrophotometer. […] (±2° C.) for 20-24 hours and visually observed for growth.
(§4) Controls were run for sterility, viability and organism confirmation. It was determined that all cultures were viable and pure.
(§5) The MBC was defined as the concentration of 9-decenoic acid or the methyl ester of 9-decenoic acid that completely eradicated viable organisms from the test system.

[2] = system: Escherichia coli 0157:H7 (ATCC 43895); assay: MIC and MBC determination (broth dilution)
Protocol: as §1, §2, §3, §4, §5

[3] = system: Klebsiella pneumoniae (ATCC 4352); assay: MIC and MBC determination (broth dilution); details: Mueller-Hinton Broth, 20-24 h, 37° C.
Protocol: as §1, §2, §3, §4, §5

[4] = system: Pseudomonas aeruginosa (ATCC 15442); assay: MIC and MBC determination (broth dilution); details: Mueller-Hinton Broth, 20-24 h, 37° C.
Protocol: as §1, §2, §3, §4, §5

[5] = system: Staphylococcus epidermidis (ATCC 12228); assay: MIC and MBC determination (broth dilution); details: subculture on TSA
Protocol: as §1, §2, §3, §4, §5

[6] = system: all organisms; assay: Time kill test, all organisms of Example 2; details: even after 10 minutes, all concentrations (0.01, 0.05 and 0.1%)
Protocol: The assessment of efficacy of 9-decenoic acid against a spectrum of microorganisms was determined using the American Society for Testing and Materials (ASTM) procedure entitled “Standard Test Method for the Assessment of Microbiocidal Activity of Test Materials Using a Time-Kill Procedure,” October 1998. This procedure incorporates the recommendations described in the “Manual of Clinical Microbiology,” 5th ed., edited by A. B. Balows et al., ASM, Washington, and is directed by the Federal Register, June 1994.
Challenge organisms were prepared as follows. Cultures of the following organisms were obtained: Staphylococcus aureus (ATCC 6538), Pseudomonas aeruginosa (ATCC 15442), Staphylococcus epidermidis (ATCC 12228), Klebsiella pneumoniae (ATCC 4352), Escherichia coli 0157:H7 (ATCC 43895) and Candida albicans (ATCC 10231). The stock cultures were transferred to sterile tubes and sterile tryptic soy broth (TSB) was added to the cultures. […]
Concentrated 9-decenoic acid (97%) was diluted in filter sterilized isopropanol to yield a 25,000 ppm stock solution. […] The pH was determined for each dilution; pH values ranged from 4.4-4.1. […]
At each exposure sample time, a 1.0 ml aliquot of the inoculated 9-decenoic acid suspension was transferred to 9.0 ml of D/E Neutralizing Broth. […] The plates were enumerated, recorded and log kill determined for each time point. […]

[7] = Mueller-Hinton Broth, 20-24 h, 37° C.

For `C=CCCCCCCCC(=O)OC` [Methyl ester of 9-decenoic acid, methyl ester of 9-decenoic acid], the MIC [1, 7] was 0.0156%, the MBC ([1]; subculture on TSA) was 0.0156% and the MIC [2, 7] was 0.125%. It also gave an MBC ([2]; subculture on TSA) of 0.125%, an MIC [3] of 0.0625% and an MIC [4] of 0.0625%. It also gave an MBC [5] of 0.25% and a log reduction [6] of under 1 log.
